Experiment [1] deals with T1, NHE3 (Homo sapiens, UniProt P48764).
T1 construct: expressed in transfected cells
T1 sequence (P48764 26-834): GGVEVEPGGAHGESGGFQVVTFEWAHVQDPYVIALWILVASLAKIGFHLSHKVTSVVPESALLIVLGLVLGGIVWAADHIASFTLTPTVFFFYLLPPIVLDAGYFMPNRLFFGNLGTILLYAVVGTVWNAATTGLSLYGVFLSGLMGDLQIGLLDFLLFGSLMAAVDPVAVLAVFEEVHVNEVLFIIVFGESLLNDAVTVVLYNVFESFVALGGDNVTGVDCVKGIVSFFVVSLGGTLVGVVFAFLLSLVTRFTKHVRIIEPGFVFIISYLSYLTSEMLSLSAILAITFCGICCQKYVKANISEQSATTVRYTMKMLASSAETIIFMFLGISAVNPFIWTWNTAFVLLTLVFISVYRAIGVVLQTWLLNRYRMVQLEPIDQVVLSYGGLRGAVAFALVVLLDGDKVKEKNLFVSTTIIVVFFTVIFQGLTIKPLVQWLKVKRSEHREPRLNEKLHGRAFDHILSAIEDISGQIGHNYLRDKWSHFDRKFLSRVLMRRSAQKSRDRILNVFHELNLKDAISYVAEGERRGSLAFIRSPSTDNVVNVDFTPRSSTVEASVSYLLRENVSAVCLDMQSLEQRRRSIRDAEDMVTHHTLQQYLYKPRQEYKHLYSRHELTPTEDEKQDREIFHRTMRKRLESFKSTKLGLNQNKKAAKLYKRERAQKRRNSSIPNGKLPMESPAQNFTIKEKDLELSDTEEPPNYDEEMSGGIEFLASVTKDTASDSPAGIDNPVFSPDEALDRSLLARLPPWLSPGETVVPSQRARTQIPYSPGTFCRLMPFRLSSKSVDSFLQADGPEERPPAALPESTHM
T1 sequence (Q99653 2-195 partner limits assumed): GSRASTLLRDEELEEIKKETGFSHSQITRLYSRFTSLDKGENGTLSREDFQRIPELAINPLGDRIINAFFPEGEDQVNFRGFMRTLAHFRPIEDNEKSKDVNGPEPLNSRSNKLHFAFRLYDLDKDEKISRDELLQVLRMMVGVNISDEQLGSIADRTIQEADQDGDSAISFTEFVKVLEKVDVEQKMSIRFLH
In words: Cell-based assay of NHE-3 activity (pre-incubation inhibition), human. As to conditions: human Preincubation; for pIC50: 0-30 μM test compound. An outline of the steps:
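Activity read as initial rate of BCECF fluorescence ratio change per minute (ex 439/505, em 538 nm) following NH4Cl prepulse acid loading. Compound (0–30 μM) present during 10 min Na+-free acidification at room temperature; cells were PS120 fibroblasts stably co-expressing human NHE3 and NHERF2.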

Experiment [2] has as its target T1, NHE3. In words: Cell-based assay of NHE-3 activity (persistent inhibition), human. The note with it: human Persistence, 60 min incubation then washout. An outline of the steps: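 Persistent inhibition: compound (0-30 μM, 60 min, RT, NaCl-HEPES pH 7.4) removed before assay. Human NHE3/NHERF2 PS120 cells were then BCECF-loaded during NH4Cl pulse (30 min, 37 °C), acidified in Na+-free buffer, and Na+ added 10 min after washout; antiport measured as initial fluorescence-ratio change per minute.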

For the compound `CN(C)[C@@H]1CCCN([C@H]2Cc3c(C#N)cc(Cl)cc3[C@@H]2Oc2ccc(S(=O)(=O)NCCOCCOCCNC(=O)NCCCCNC(=O)NCCOCCOCCNS(=O)(=O)c3ccc(O[C@H]4c5cc(Cl)cc(C#N)c5C[C@@H]4N4CCC[C@@H](N(C)C)C4)c(F)c3)cc2F)C1` [Example 40, 3-[2-(2-[2-[(4-[[(1S,2S)-6-Chloro-4-cyano-2-[(3R)-3-(dimethylamino)piperidin-1-yl]-2,3-dihydro-1H-inden-1-yl]oxy]-3-fluorobenzene)sulfonamido]ethoxy]ethoxy)ethyl]-1-[4-([[2-(2-[2-[(4-[[(1S,2S)-6-chloro-4-cyano-2-[(3R)-3-(dimethylamino)piperidin-1-yl]-2,3-dihydro-1H-inden-1-yl]oxy]-3-fluorobenzene)sulfonamido]ethoxy]ethoxy)ethyl]carbamoyl]amino)butyl]urea; bis(trifluoroacetic acid)], the “% inhibition” value on NHE3 [1] and at NHE3 [2] was “A (NHE3 < 40%)” throughout.
Turning to `N#Cc1cc(Cl)cc2c1C[C@H](N1CCC[C@@H](N)C1)[C@H]2Oc1ccc(S(=O)(=O)NCCOCCOCCNC(=O)NCCCCNC(=O)NCCOCCOCCNS(=O)(=O)c2ccc(O[C@H]3c4cc(Cl)cc(C#N)c4C[C@@H]3N3CCC[C@@H](N)C3)c(F)c2)cc1F` [Example 38], at NHE3 [1], the “% inhibition” value is recorded as “A (NHE3 < 40%)” and the pIC50 entry is reported as “A (NHE3 pIC50 < 6)”. In addition, at NHE3 [2], the “% inhibition” value was “A (NHE3 < 40%)” and the pIC50 result is reported as “A (NHE3 pIC50 < 6)”.
Turning to `CN(C)[C@H]1Cc2c(C#N)cc(Cl)cc2[C@@H]1Oc1ccc(S(=O)(=O)NCCOCCOCCNC(=O)NCCCCNC(=O)NCCOCCOCCNS(=O)(=O)c2ccc(O[C@H]3c4cc(Cl)cc(C#N)c4C[C@@H]3N(C)C)c(F)c2)cc1F` [Example 37, 3-[2-(2-[2-[(4-[[(1S,2S)-6-Chloro-4-cyano-2-(dimethylamino)-2,3-dihydro-1H-inden-1-yl]oxy]-3-fluorobenzene)sulfonamido]ethoxy]ethoxy)ethyl]-1-[4-([[2-(2-[2-[(4-[[(1S,2S)-6-chloro-4-cyano-2-(dimethylamino)-2,3-dihydro-1H-inden-1-yl]oxy]-3-fluorobenzene)sulfonamido]ethoxy]ethoxy)ethyl]carbamoyl]amino)butyl]urea], on NHE3 [1], the “% inhibition” value is recorded as “B (40-70%)” and the pIC50 entry is recorded as “C (NHE3 pIC50 > 7)”. At NHE3 [2], the “% inhibition” value is on record as “B (40-70%)” and the pIC50 result is on record as “C (NHE3 pIC50 > 7)”.
As for `CN(C)[C@H]1Cc2c(Cl)cc(Cl)cc2[C@@H]1Oc1c(F)cc(S(=O)(=O)NCCOCCOCCNC(=O)NCCCCNC(=O)NCCOCCOCCNS(=O)(=O)c2cc(F)c(O[C@H]3c4cc(Cl)cc(Cl)c4C[C@@H]3N(C)C)c(F)c2)cc1F` [Example 86], on NHE3 [1], the “% inhibition” value is on record as “C (>70%)” and the pIC50 result is recorded as “C (NHE3 pIC50 > 7)”. At NHE3 [2], the “% inhibition” value is “C (>70%)” and the pIC50 entry is “C (NHE3 pIC50 > 7)”.
In the case of `Cc1cc(S(=O)(=O)NCCOCCOCCNC(=O)NCCCCNC(=O)NCCOCCOCCNS(=O)(=O)c2ccc(O[C@H]3c4cc(Cl)cc(C(F)(F)F)c4C[C@@H]3N(C)C)c(C)c2)ccc1O[C@H]1c2cc(Cl)cc(C(F)(F)F)c2C[C@@H]1N(C)C` [Example 19, 3-[2-(2-[2-[(4-[[(1S,2S)-6-Chloro-2-(dimethylamino)-4-(trifluoromethyl)-2,3-dihydro-1H-inden-1-yl]oxy]-3-methylbenzene)sulfonamido]ethoxy]ethoxy)ethyl]-1-[4-([[2-(2-[2-[(4-[[(1S,2S)-6-chloro-2-(dimethylamino)-4-(trifluoromethyl)-2,3-dihydro-1H-inden-1-yl]oxy]-3-methylbenzene)sulfonamido]ethoxy]ethoxy)ethyl]carbamoyl]amino)butyl]urea], at NHE3 [1], the “% inhibition” value is “A (NHE3 < 40%)” and the pIC50 result is given as “A (NHE3 pIC50 < 6)”. For the same compound, on NHE3 [2], the “% inhibition” value was “A (NHE3 < 40%)” and the pIC50 result was “A (NHE3 pIC50 < 6)”.
As for `Cc1cc(S(=O)(=O)NCCOCCOCCNC(=O)NCCCCNC(=O)NCCOCCOCCNS(=O)(=O)c2cc(C)c(O[C@H]3c4cc(Cl)cc(Cl)c4C[C@@H]3N3CCC[C@@H](N)C3)cc2F)c(F)cc1O[C@H]1c2cc(Cl)cc(Cl)c2C[C@@H]1N1CCC[C@@H](N)C1` [Example 89, 3-[2-(2-[2-[(4-[[(1S,2S)-2-[(3R)-3-Aminopiperidin-1-yl]-4,6-dichloro-2,3-dihydro-1H-inden-1-yl]oxy]-2-fluoro-5-methylbenzene)sulfonamido]ethoxy]ethoxy)ethyl]-1-[4-([[2-(2-[2-[(4-[[(1S,2S)-2-[(3R)-3-aminopiperidin-1-yl]-4,6-dichloro-2,3-dihydro-1H-inden-1-yl]oxy]-2-fluoro-5-methylbenzene)sulfonamido]ethoxy]ethoxy)ethyl]carbamoyl]amino)butyl]urea; bis(trifluoroacetic acid)], the “% inhibition” value on NHE3 [1] and on NHE3 [2] was “C (>70%)” in each case.
For `N[C@@H]1CCCN([C@H]2Cc3c(Cl)cc(Cl)cc3[C@@H]2Oc2c(F)cc(S(=O)(=O)NCCOCCOCCNC(=O)NCCCCNC(=O)NCCOCCOCCNS(=O)(=O)c3cc(F)c(O[C@H]4c5cc(Cl)cc(Cl)c5C[C@@H]4N4CCC[C@@H](N)C4)c(F)c3)cc2F)C1` [Example 85, 3-[2-(2-[2-[(4-[[(1S,2S)-2-[(3R)-3-Aminopiperidin-1-yl]-4,6-dichloro-2,3-dihydro-1H-1-inden-1-yl]oxy]-3,5-difluorobenzene)sulfonamido]ethoxy]ethoxy)ethyl]-1-[4-([[2-(2-[2-[(4-[[(1S,2S)-2-[(3R)-3-aminopiperidin-1-yl]-4,6-dichloro-2,3-dihydro-1H-inden-1-yl]oxy]-3,5-difluorobenzene)sulfonamido]ethoxy]ethoxy)ethyl]carbamoyl]amino)butyl]urea; bis(trifluoroacetic acid)], the “% inhibition” value on NHE3 [1] and at NHE3 [2] was “C (>70%)” throughout.
Turning to `N#Cc1cc(Cl)cc2c1C[C@H](N1CCNCC1)[C@H]2Oc1ccc(S(=O)(=O)N[C@@H]2CCN(C(=O)CCCNC(=O)NCCCCNC(=O)NCCCC(=O)N3CC[C@@H](NS(=O)(=O)c4ccc(O[C@H]5c6cc(Cl)cc(C#N)c6C[C@@H]5N5CCNCC5)cc4)C3)C2)cc1` [Example 142, 4-([(1S,2S)-6-Chloro-4-cyano-2-(piperazin-1-yl)-2,3-dihydro-1H-inden-1-yl]oxy)-N—[(R)-1-(18-[(R)-3-([4-([(1S,2S)-6-chloro-4-cyano-2-(piperazin-1-yl)-2,3-dihydro-1H-inden-1-yl]oxy)phenyl]sulfonamido)pyrrolidin-1-yl]-6,13,18-trioxo-5,7,12,14-tetraazaoctadecanoyl)pyrrolidin-3-yl]benzenesulfonamide], the “% inhibition” value at NHE3 [1] and at NHE3 [2] was “C (>70%)” each time. Besides, the pIC50 entry against NHE3 [1] and on NHE3 [2] was “C (NHE3 pIC50 > 7)” throughout.
As usually defined, the IC50 is the concentration at which inhibition is half-maximal. A lower IC50 goes with inhibition by little substance. As to `Cc1cc(S(=O)(=O)NCCOCCOCCNC(=O)NCCCCNC(=O)NCCOCCOCCNS(=O)(=O)c2cc(C)c(O[C@H]3c4cc(Cl)cc(Cl)c4C[C@@H]3N(C)C)cc2C)c(C)cc1O[C@H]1c2cc(Cl)cc(Cl)c2C[C@@H]1N(C)C` [Example 82, 3-[2-(2-[2-[(4-[[(1S,2S)-4,6-Dichloro-2-(dimethylamino)-2,3-dihydro-1H-inden-1-yl]oxy]-2,5-dimethylbenzene)sulfonamido]ethoxy]ethoxy)ethyl]-[4-([[2-(2-[2-[(4-[[(1S,2S)-4,6-dichloro-2-(dimethylamino)-2,3-dihydro-1H-inden-1-yl]oxy]-2,5-dimethylbenzene)sulfonamido]ethoxy]ethoxy)ethyl]carbamoyl]amino)butyl]urea], on NHE3 [1], the “% inhibition” value is recorded as “B (40-70%)” and the pIC50 entry was “C (NHE3 pIC50 > 7)”. At NHE3 [2], the “% inhibition” value is recorded as “C (>70%)” and the IC50 is 100 to 1000 nM.

Source of the values: patent US11242337B2, “Compounds useful for treating gastrointestinal tract disorders” (Ardelyx, Inc., priority 2017, dated 2022).
